molecular target: His-Tagged hOGA (human O-GlcNAcase) (Homo sapiens (Human), UniProt O60502); test: Human O-GlcNAcase enzyme inhibition assay; type: biochemical; conditions: 20 nM His-Tagged hOGA, 10 μM FL-GlcNAc, 60 min at room temperature, pH 6.5; activity classes defined in μM; read-out: Enzymatic OGA IC50
Method: Then, 20 nM of His-Tagged hOGA and 10 μM of FL-GlcNAc (Fluorescein mono-beta-D-(2-deoxy-2-N-acetyl) glucopyranoside; Marker Gene Technologies Inc, M1485) were added to the 384-well plate for a final volume of 20 μl.

His-Tagged hOGA (human O-GlcNAcase), sequence (O60502 whole entry): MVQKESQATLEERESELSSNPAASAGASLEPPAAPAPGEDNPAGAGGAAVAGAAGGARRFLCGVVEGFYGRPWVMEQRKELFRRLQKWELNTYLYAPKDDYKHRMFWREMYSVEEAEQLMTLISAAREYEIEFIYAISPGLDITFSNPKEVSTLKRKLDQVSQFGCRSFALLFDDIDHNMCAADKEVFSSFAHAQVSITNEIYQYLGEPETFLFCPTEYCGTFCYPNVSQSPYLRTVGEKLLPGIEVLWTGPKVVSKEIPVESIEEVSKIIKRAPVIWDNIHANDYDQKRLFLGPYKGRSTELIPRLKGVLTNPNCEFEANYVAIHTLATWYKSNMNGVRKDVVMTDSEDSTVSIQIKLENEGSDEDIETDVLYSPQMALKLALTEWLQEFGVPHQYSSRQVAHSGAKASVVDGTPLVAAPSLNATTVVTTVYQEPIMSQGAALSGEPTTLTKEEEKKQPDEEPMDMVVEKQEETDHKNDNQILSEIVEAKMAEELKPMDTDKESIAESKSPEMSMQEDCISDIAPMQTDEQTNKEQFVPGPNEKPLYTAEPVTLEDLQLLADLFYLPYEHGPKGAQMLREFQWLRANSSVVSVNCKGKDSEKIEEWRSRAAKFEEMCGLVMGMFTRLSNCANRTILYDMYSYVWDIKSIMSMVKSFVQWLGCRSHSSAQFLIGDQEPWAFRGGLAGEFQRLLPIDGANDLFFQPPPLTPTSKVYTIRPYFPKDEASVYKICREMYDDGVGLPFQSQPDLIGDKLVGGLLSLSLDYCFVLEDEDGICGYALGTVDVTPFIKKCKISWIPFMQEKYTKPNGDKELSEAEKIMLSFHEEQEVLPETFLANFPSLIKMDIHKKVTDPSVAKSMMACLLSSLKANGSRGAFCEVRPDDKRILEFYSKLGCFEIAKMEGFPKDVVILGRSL

SMILES	IC50 [µM]
CC(c1ccc2c(c1)OCC2)N1CCN(C(=O)NC2CCOC2)CC1 (racemic) [Example 18, 4-(1-(2,3-dihydrobenzofuran-6-yl)ethyl)-N-(tetrahydrofuran-3-yl)piperazine-1-carboxamide]	0.05 to 0.2
CC(c1ccc2c(c1)OCO2)N1CCN(C(=O)Nc2ccccc2)CC1 (racemic) [Example 19, 4-(1-(benzo[d][1,3]dioxol-5-yl)ethyl)-N-phenylpiperazine-1-carboxamide]	0.2 to 1
CC(c1ccc2c(c1)OCO2)N1CCN(C(=O)Nc2ccc(Cl)cc2)CC1 (racemic) [Example 20, 4-(1-(benzo[d][1, 3]dioxol-5-yl)ethyl)-N-(4-chlorophenyl)piperazine-1-carboxamide]	0.2 to 1
CC(c1ccc2c(c1)OCC2)N1CCC(C(=O)NCc2ccc(C#N)cc2)CC1 (racemic) [Example 21, N-(4-cyanobenzyl)-1-(1-(2,3-dihydrobenzofuran-6-yl)ethyl)piperidine-4-carboxamide]	0.2 to 1
CC(c1ccc2c(c1)OCC2)N1CCC(C(=O)NCc2ccc(S(C)(=O)=O)cc2)CC1 (racemic) [Example 22, 1-(1-(2,3-dihydrobenzofuran-6-yl)ethyl)-N-(4-(methylsulfonyl)benzyl)piperidine-4-carboxamide]	0.2 to 1
CC(c1ccc2c(c1)OCC2)N1CCC(C(=O)NCc2ccc(C(F)(F)F)cc2)CC1 (racemic) [Example 23, 1-(1-(2,3-dihydrobenzofuran-6-yl)ethyl)-N-(4-(trifluoromethyl)benzyl)piperidine-4-carboxamide]	0.2 to 1
CC(c1ccc2c(c1)OCC2)N1CCC(Nc2cccnc2)CC1 (racemic) [Example 24, N-(1-(1-(2,3-dihydrobenzofuran-6-yl)ethyl)piperidin-4-yl)pyridin-3-amine]	0.05 to 0.2
CC(c1ccc2c(c1)OCC2)N1CCC(NC(=O)Cc2ccc(S(C)(=O)=O)cc2)CC1 (racemic) [Example 25, N-(1-(1-(2,3-dihydrobenzofuran-6-yl)ethyl)piperidin-4-yl)-2-(4-(methylsulfonyl)phenyl)acetamide]	< 0.05
CC(c1ccc2c(c1)OCC2)N1CCC(NC(=O)Cc2ccc(C#N)cc2)CC1 (racemic) [Example 26, 2-(4-cyanophenyl)-N-(1-(1-(2,3-dihydrobenzofuran-6-yl)ethyl)piperidin-4-yl)acetamide]	0.05 to 0.2
CC(c1ccc2c(c1)OCC2)N1CCC(NC(=O)Cc2ccc(C(F)(F)F)cc2)CC1 (racemic) [Example 27, N-(1-(1-(2,3-dihydrobenzofuran-6-yl)ethyl)piperidin-4-yl)-2-(4-(trifluoromethyl)phenyl)acetamide]	0.05 to 0.2
COc1cc(OC2CCN(C(C)c3ccc4c(c3)OCC4)CC2)ccn1 (racemic) [Example 29, 4-((1-(1-(2,3-dihydrobenzofuran-6-yl)ethyl)piperidin-4-yl)oxy)-2-methoxypyridine]	< 0.05
CC(c1ccc2c(c1)OCC2)N1CCC(Oc2ccc(S(C)(=O)=O)cn2)CC1 (racemic) [Example 30, 2-((1-(1-(2,3-dihydrobenzofuran-6-yl)ethyl)piperidin-4-yl)oxy)-5-(methylsulfonyl)pyridine]	< 0.05
CC(c1ccc2c(c1)OCC2)N1CCC(Oc2cccnc2)CC1 (racemic) [Example 32, 3-((1-(1-(2,3-dihydrobenzofuran-6-yl)ethyl)piperidin-4-yl)oxy)pyridine]	< 0.05
CC(c1ccc2c(c1)OCC2)N1CCC(Oc2ccc(C#N)cn2)CC1 (racemic) [Example 33, 6-((1-(1-(2,3-dihydrobenzofuran-6-yl)ethyl)piperidin-4-yl)oxy)nicotinonitrile]	< 0.05
CC(c1ccc2c(c1)OCC2)N1CCC(Oc2cncnc2)CC1 (racemic) [Example 34, 5-((1-(1-(2,3-dihydrobenzofuran-6-yl)ethyl)piperidin-4-yl)oxy)pyrimidine]	0.05 to 0.2
CC(c1ccc2c(c1)OCC2)N1CCC(OCc2cccnc2)CC1 (racemic) [Example 35, 3-(((1-(1-(2,3-dihydrobenzofuran-6-yl)ethyl)piperidin-4-yl)oxy)methyl)pyridine]	0.05 to 0.2
CC(c1ccc2c(c1)OCC2)N1CCC(Oc2ncc(S(C)(=O)=O)cn2)CC1 (racemic) [Example 36, 2-((1-(1-(2,3-dihydrobenzofuran-6-yl)ethyl)piperidin-4-yl)oxy)-5-(methylsulfonyl)pyrimidine]	0.05 to 0.2
CC(c1ccc2c(c1)OCC2)N1CCC(Oc2ncccn2)CC1 (racemic) [Example 37, 2-((1-(1-(2,3-dihydrobenzofuran-6-yl)ethyl)piperidin-4-yl)oxy)pyrimidine]	0.2 to 1
CC(c1ccc2c(c1)OCC2)N1CCC(Oc2cccnn2)CC1 (racemic) [Example 38, 3-((1-(1-(2,3-dihydrobenzofuran-6-yl)ethyl)piperidin-4-yl)oxy)pyridazine]	0.2 to 1
CC(c1ccc2c(c1)OCC2)N1CCC(Oc2cccnc2)CC1 (single isomer, unassigned) [Example 28]	< 0.05
CC(c1ccc2scnc2c1)N1CCC(Oc2cccnc2)CC1 (single isomer, unassigned) [Example 31, (S)-5-(1-(4-(pyridin-3-yloxy)piperidin-1-yl)ethyl)benzo[d]thiazole or (R)-5-(1-(4-(pyridin-3-yloxy)piperidin-1-yl)ethyl)benzo[d]thiazole]	< 0.05
CC(c1ccc2c(c1)OCC2)N1CCC(Oc2cccnc2)CC1 (single isomer, unassigned) [Example 39]	1 to 10

Source: patent US11213525B2, “Linear glycosidase inhibitors” (Asceneuron SA, priority 2017, dated 2022)
